tested on: NO production in BV-2 cells [NO 생성; BV-2 세포]; assay: Nitric oxide (NO) quantification (nitrite, Griess reaction) in LPS-activated BV-2 cells; assay type: cell-based; settings: Mus musculus, BV-2, 24 h, 20 μM, LPS 0.2 ㎍/mL, 24 h co-treatment, nitrite by Griess at 540 nm

| Compound | activity at 20 µM [%] |
| --- | --- |
| COc1ccc([C@H](C)Nc2nc(SC)nc3c2cnn3-c2ccccc2)cc1 [화합물 15zc, N-((S)-1-(4-메톡시페닐)에틸)-6-(메틸티오))-1-페닐-1H-피라졸로[3,4-d]피리미딘-4-아민] | 42 ± 0.9 |
| COc1cccc(CNc2nc(SC)nc3c2cnn3CCO)c1 [화합물 27d, 1-(1-하이드록시에틸)-4-(3-메톡시벤질)아미노-6-(메틸티오)피라졸로[3,4-d]피리미딘] | 49 ± 12 |
| CSc1nc(NCc2ccc(Cl)cc2)c2cnn(-c3ccccc3)c2n1 [화합물 15n, 1-페닐-4-(4-클로로벤질)아미노-6-(메틸티오)피라졸로[3,4-d]피리미딘] | 63 ± 6 |
| CSc1nc(NCc2ccccc2)c2cnn(CCNC(=O)OC(C)(C)C)c2n1 [화합물 14a, 1-(N-t-Boc-아미노에틸)-4-벤질아미노-6-(메틸티오)피라졸로[3,4-d]피리미딘] | 58 ± 6 |
| COc1cccc(CCn2ncc3c(NCc4ccccc4OC)nc(SC)nc32)c1 [화합물 18b, N-(2-메톡시벤질)-1-(3-메톡시펜에틸)-6-(메틸티오)-1H-피라졸로[3,4-d]피리미딘-4-아민] | 37 ± 17.6 |
| CSc1nc(Cl)c2cnn(-c3ccc(C)cc3)c2n1 [5i, 1-(4-메틸페닐)-4-클로로-6-(메틸티오)피라졸로[3,4-d]피리미딘] | 54 ± 2.7 |
| CSc1nc(N(CCO)CCO)c2cnn(Cc3ccccc3)c2n1 [화합물 16i, 1-벤질-4-비스(1-하이드록시에틸)아미노-6-(메틸티오)피라졸로[3,4-d]피리미딘] | 79 ± 3 |
| COc1cccc(CNc2nc(SC)nc3[nH]ncc23)c1 [6i, 4-(3-메톡시벤질)아미노-6-(메틸티오)피라졸로[3,4-d]피리미딘] | 48 ± 10 |
| CSc1nc(Cl)c2cnn(Cc3ccccc3)c2n1 [5f, 1-벤질-4-클로로-6-(메틸티오)피라졸로[3,4-d]피리미딘] | 69 ± 3 |
| COc1cccc(CCn2ncc3c(NCc4ccc(C)cc4)nc(SC)nc32)c1 [화합물 18f, 1-(3-메톡시펜에틸)-N-(4-메틸벤질)-6-(메틸티오)-1H-피라졸로[3,4-d]피리미딘-4-아민] | 56 ± 3.1 |
| Cc1ccc(-n2ncc3c(NCc4ccccc4Cl)nc(S(C)(=O)=O)nc32)cc1 [화합물 23l, N-(2-클로로벤질)-6-(메틸설포닐)-1-p-톨릴-1H-피라졸로[3,4-d]피리미딘-4-아민] | 30 ± 37.4 |
| COc1ccc(CNc2nc(SC)nc3[nH]ncc23)cc1 [6x, N-(4-메톡시벤질)-6-(메틸티오)-1H-피라졸로[3,4-d]피리미딘-4-아민] | 115 ± 3.2 |
| CSc1nc(NC(C)c2ccc(C)cc2)c2cnn(Cc3ccccc3)c2n1 (centres unmarked) [화합물 16za, 1-벤질-6-(메틸티오)-N-(1-p-톨릴에틸)-1H-피라졸로[3,4-d]피리미딘-4-아민] | 40 ± 1.3 |
| C=CCn1ncc2c(NCc3ccccn3)nc(SC)nc21 [화합물 13n, 1-알릴-6-(메틸티오)-N-((피리딘-2-일)메틸)-1H-피라졸로[3,4-d]피리미딘-4-아민] | 17.6 ± 0.7 |
| CSc1nc(NC(C)C2CCCCC2)c2cn[nH]c2n1 (centres unmarked) [6j, 4-(1-사이클로헥실에틸)아미노-6-(메틸티오)피라졸로[3,4-d]피리미딘] | 66 ± 10 |
| CSc1nc(NCc2ccccn2)c2cnn(-c3ccccc3)c2n1 [화합물 15j, 1-페닐-4-[(피리딘-2-일)메틸]아미노-6-(메틸티오)피라졸로[3,4-d]피리미딘] | 30 ± 14 |
| CSc1nc(NCc2ccccc2)c2cnn(CCO)c2n1 [화합물 27a, 1-(1-하이드록시에틸)-4-벤질아미노-6-(메틸티오)피라졸로[3,4-d]피리미딘] | 77 ± 5 |
| CSc1nc(NCc2ccc(F)cc2)c2cnn(Cc3ccccc3)c2n1 [화합물 16c, 1-벤질-4-(4-플루오로벤질)아미노-6-(메틸티오)피라졸로[3,4-d]피리미딘] | 32.3 ± 3 |
| CSc1nc(NC(C)c2ccc(C)cc2)c2cnn(-c3ccccc3)c2n1 (centres unmarked) [화합물 15zb, 6-(메틸티오)-1-페닐-N-(1-p-톨릴에틸)-1H-피라졸로[3,4-d]피리미딘-4-아민] | 51 ± 0.1 |
| CSc1nc(Cl)c2cnn(CCOC3CCCCO3)c2n1 (centres unmarked) [5c, 1-[2-(테트라하이드로피란-2-일옥시)에틸]-4-클로로-6-(메틸티오)피라졸로[3,4-d]피리미딘] | 49 ± 9 |
| COc1ccc([C@H](C)Nc2nc(S(C)(=O)=O)nc3c2cnn3-c2ccccc2)cc1 [화합물 23h, N-((S)-1-(4-메톡시페닐)에틸)-6-(메틸설포닐)-1-페닐-1H-피라졸로[3,4-d]피리미딘-4-아민] | 41 ± 5.7 |
| CC(Nc1nc(NCCCCO)nc2c1cnn2Cc1ccccc1)c1ccccc1 (centres unmarked) [화합물 24c, 4-(4-(1-페닐에틸아미노)-1-벤질-1H-피라졸로[3,4-d]피리미딘-6-일아미노)부탄-1-올] | 123 ± 5.4 |
| CSc1nc(NCc2ccccc2)c2cnn(C(C)(C)C)c2n1 [화합물 17a, 1-t-뷰틸-4-벤질아미노-6-(메틸티오)피라졸로[3,4-d]피리미딘] | 73 ± 3 |
